According to patent publication US12421276B2 (priority 2016, dated 2025):
Several values for one entry are separate records, joined by “and”; a condition that tells them apart may be missing. Equal entries are not always repeated. Where two headings read alike, the source gives them in different places.

Tests used:
[1] = Metabolic stability in simulated intestinal fluid (SIF), pH 6.8, with or without pancreatin; format: in vitro ADME; conditions: 5 μM, 37° C.; for half-life: simulated gi fluid
Procedure: (§1) Metabolic Stability in SIF and SGF (Simulated Intestinal and Gastric Fluid)
Buffer 3=SIF without enzyme
Buffer 4=SIF with 1% pancreatin
(§2) SIF was prepared freshly with 8.7 mM NaOH, 28.65 mM NaH2PO4, 105.85 mM NaCl, with a final pH of 6.8. SGF was prepared freshly with 34.2 mM NaCl, with a final pH of 1.2. Enzymes such as pepsin or pancreatin were added to some buffers. Human and rat plasma (K2 EDTA) were purchased from BioreclamationIVT.
(§3) Compounds were dissolved as 1.5 mM DMSO stocks. Compounds were transferred to SIF, SGF, or plasma at 5 μM on a 96-well deep well plate. After mixing, samples were transferred to several 96-well plates (25 μL/well), and incubated at 37° C. The extent of metabolism was calculated as the disappearance of the test compound, compared to the 0-min control reaction incubations. Candesartan Cilexetil and omeprazole were included as positive controls for SIF and SGF, respectively, to verify assay performance.
(§4) At each of the time points, 150 μL of quench solution (100% acetonitrile with 0.1% formic acid) with internal standard (bucetin for positive ESI mode and warfarin for negative ESI mode) was transferred to each well. Plates were sealed and centrifuged at 4° C. for 15 minutes at 4000 rpm. The supernatant was transferred to fresh plates for LC/MS/MS analysis.
(§5) Elution conditions are detailed in the table below.
(§6) Initial rates of the clearance of test compounds were calculated using linear regression of semi-log plot of % remaining of compounds versus time. The elimination rate constant (equals to −slope) of the linear regression was then used to determine t½ values.

[2] = Plasma stability study, rat plasma; format: in vitro ADME; conditions: Rat plasma, 1 μM, 37° C.
Procedure: (§7) Human and rat plasma (K2 EDTA) were obtained from Bioreclamation.
(§8) Compounds were dissolved as 0.3 mM DMSO stocks. Compounds were transferred to the plasma at 1 μM on a 96-well deep well plate. After mixing, samples were transferred to several 96-well plates (25 μL/well), and incubated at 37° C. The extent of metabolism was calculated as the disappearance of the test compound, compared to the 0-min control reaction incubations. Propantheline was included as a positive control to verify assay performance.
as §4, with “(50% acetonitrile, 50% methanol” for “(100% acetonitrile”, “0.05%” for “0.1%”
as §5, §6

[3] = format: in vivo, rat; conditions: rat, dosed as prodrug, 10 mg/kg equivalent of Base Structure
Procedure: • 1. Eight (8) male JVC SD rats (purchased from Charles River Lab) were monitored daily for body condition and health status during the 3-5 days acclimation period. The rats were randomly assigned into […] (n=4). • 2. […] The dosed rats were individually placed into a metabolic cage, and have access to food and water at all times. The urine from each rat was collected daily from the metabolic cages, and kept in dry ice. • 4. At predose (0 min), 5 min, 15 min, 30 min, 1 hr, 2 hr, 8 hr, and 24 hr post dosing, approximately 200 ul blood samples were collected from each rat and transferred to EDTA tubes. • 5. The blood samples in EDTA vials were centrifuged at 4° C. and 6,000 rpm for 10 minutes to generate ˜100 μl of plasma per sample. Blood samples were processed as quickly as possible and remain no longer than 2 min at room temperature and no longer than 15 minutes at 4° C. prior to processing. • 6. All samples were transferred for bioanalytic assay using LCMS

[4] = Plasma stability study, human plasma; format: in vitro ADME; conditions: Human plasma, 1 μM, 37° C.
Procedure: as §7, §8
as §4, with “(50% acetonitrile, 50% methanol” for “(100% acetonitrile”, “0.05%” for “0.1%”
as §5, §6

[5] = Metabolic stability in simulated gastric fluid (SGF), pH 1.2, with or without pepsin; format: in vitro ADME; conditions: 5 μM, 37° C.; for half-life: simulated gi fluid
Procedure: as §1
Buffer 1=SGF without enzyme
Buffer 2=SGF with 0.32% pepsin
as §2, §3, §4, §5, §6

[6] = analyte Parent (Base Structure), Average
[7] = analyte Parent (Base Structure), Combined (average ± std. dev.)
[8] = analyte Parent (Base Structure), individual animals, 10 mg/kg
[9] = analyte Prodrug, Combined (average ± std. dev.)
[10] = analyte Prodrug, individual animals

## CCCCCC(=O)N1C(Cc2ccc(OP(=O)([O-])[O-])cc2)C(=O)N(C(C(=O)NCCCCCC(N)=O)C(C)CC)C12CCN(C)CC2.[Na+].[Na+] (stereo not drawn) [Compound 2]
[1]; +Pancreatin (1%)
  SIF Stability (pH 6.8) 0 min: 100%
  SIF Stability (pH 6.8) 60 min: 94%
  SIF Stability (pH 6.8) 120 min: 51%
  SIF Stability (pH 6.8) 240 min: 34%
[1]; pH 6.8, +Pancreatin (1%)
  half-life: 2.37 h
[1]; pH 6.8, −Pancreatin
  half-life: 13.4 h
[1]; −Pancreatin
  SIF Stability (pH 6.8) 0 min: 100%
  SIF Stability (pH 6.8) 60 min: 82%
  SIF Stability (pH 6.8) 120 min: 82%
  SIF Stability (pH 6.8) 240 min: 78%
[2]
  half-life: 18.1 h
[2]; 0 min
  Plasma Stability (% Parent Remaining) 0 min: 100%
[2]; 60 min
  Plasma Stability (% Parent Remaining) 60 min: 82%
[2]; 120 min
  Plasma Stability (% Parent Remaining) 120 min: 77%
[2]; 240 min
  Plasma Stability (% Parent Remaining) 240 min: 83%
[3]; [6]
  Cl/F_obs: 0.2421 (mg/kg)/(ng/ml)/h
  Vz/F_obs: 6.571 (mg/kg)/(ng/ml)
[3]; [7]
  Cl/F_obs: 0.2 ± 0.1 (mg/kg)/(ng/ml)/h
  Vz/F_obs: 6.6 ± 6.9 (mg/kg)/(ng/ml)
[3]; [8]
  Cl/F_obs: 0.1263 (mg/kg)/(ng/ml)/h and 0.2902 (mg/kg)/(ng/ml)/h and 0.3099 (mg/kg)/(ng/ml)/h
  Vz/F_obs: 0.6603 (mg/kg)/(ng/ml) and 4.961 (mg/kg)/(ng/ml) and 14.09 (mg/kg)/(ng/ml)
[3]; analyte Prodrug, Average
  AUMC 0-inf_obs: 0 ng/ml * h^2
  Cl/F_obs: 0 (mg/kg)/(ng/ml)/h
  Lambda_z: 0 h⁻¹
  Tlag: 0 h
  Tmax: 0 h
  Vz/F_obs: 0 (mg/kg)/(ng/ml)
[3]; [9]
  AUMC 0-inf_obs: 0 ng/ml * h^2
  Cl/F_obs: 0 (mg/kg)/(ng/ml)/h
  Lambda_z: 0 h⁻¹
  Tlag: 0 h
  Tmax: 0 h
  Vz/F_obs: 0 (mg/kg)/(ng/ml)
[3]; [10]
  AUMC 0-inf_obs: 0 ng/ml * h^2
  Cl/F_obs: 0 (mg/kg)/(ng/ml)/h
  Lambda_z: 0 h⁻¹
  Tlag: 0 h
  Tmax: 0 h
  Vz/F_obs: 0 (mg/kg)/(ng/ml)
[4]
  half-life: 7.08 h
[4]; 0 min
  Plasma Stability (% Parent Remaining) 0 min: 100%
[4]; 60 min
  Plasma Stability (% Parent Remaining) 60 min: 113%
[4]; 120 min
  Plasma Stability (% Parent Remaining) 120 min: 90%
[4]; 240 min
  Plasma Stability (% Parent Remaining) 240 min: 72%
[5]; +Pepsin (0.32%)
  SGF Stability (pH 1.2) 0 min: 100%
  SGF Stability (pH 1.2) 60 min: 94%
  SGF Stability (pH 1.2) 120 min: 89%
  SGF Stability (pH 1.2) 240 min: 73%
[5]; pH 1.2, +Pepsin (0.32%)
  half-life: 8.62 h
[5]; pH 1.2, −Pepsin
  half-life: 7.17 h
[5]; −Pepsin
  SGF Stability (pH 1.2) 0 min: 100%
  SGF Stability (pH 1.2) 60 min: 84%
  SGF Stability (pH 1.2) 120 min: 78%
  SGF Stability (pH 1.2) 240 min: 67%
